# Data reported in ChEMBL document CHEMBL1133836, “Anchoring and bola cationic amphiphiles for nucleotide delivery. Effects of orientation and extension of hydrophobic regions” (2001).
# Key:
# Assay type in all cases: functional, Mus musculus
# NIH3T3 [1] = assay: Transfection activity of the liposomes derived from compound determined by luciferase assay at 12.5 nmol
# NIH3T3 [2] = assay: Cytotoxicity expressed as percent viability of liposome-plasmid DNA complex at 12.5 nmol
# NIH3T3 [3] = assay: Cytotoxicity expressed as percent viability of liposome-plasmid DNA complex at 100 nmol
# NIH3T3 [4] = assay: Cytotoxicity expressed as percent viability of liposome-plasmid DNA complex at 25 nmol
# NIH3T3 [5] = assay: Cytotoxicity expressed as percent viability of liposome-plasmid DNA complex at 50 nmol
# NIH3T3 [6] = assay: Transfection activity of the liposomes derived from compound determined by luciferase assay at 25 nmol
# NIH3T3 [7] = assay: Cytotoxicity expressed as percent viability of liposome-plasmid DNA complex
Compound,Transfection activity (NIH3T3 [1]),Viability (NIH3T3 [2]) [%],Viability (NIH3T3 [3]) [%],Viability (NIH3T3 [4]) [%],Viability (NIH3T3 [5]) [%],Transfection activity (NIH3T3 [6]),Viability (NIH3T3 [7]) [%]
C[C@H](CCC(=O)NCCCNCCCCN)C1CCC2C3CCC4CC(OC/C=C/CO[C@@H]5CC[C@]6(C)C(CCC7C6CC[C@]6(C)C7CCC6[C@H](C)CCC(=O)NCCCNCCCCN)C5)CC[C@]4(C)C3CC[C@@]21C (stereo partly drawn),1000000 RLU (mg of protein)-1,–,–,–,–,–,–
C[C@H](CCC(=O)NCCCNCCCCN)C1CCC2C3CCC4CC(OC/C=C/CO[C@H]5CC[C@]6(C)C(CCC7C6CC[C@]6(C)C7CCC6[C@H](C)CCC(=O)NCCCNCCCCN)C5)CC[C@]4(C)C3CC[C@@]21C (stereo partly drawn),1500000 RLU (mg of protein)-1,95,5,75,40,2000000 RLU (mg of protein)-1,–
CC(C)CCC[C@@H](C)C1CCC2C3CC=C4CC(OC(=O)NCCN(C)C)CCC4(C)C3CCC21C (stereo partly drawn),–,–,–,–,–,–,95
